One data set concerns the target T1, SERT (Rattus norvegicus, UniProt P31652).
T1 construct: 100 μl of tissue preparation (2 mg of brain stem membranes per well); tissue Bioreclamation IVT (Hicksville, N.Y.); host or cells: male Sprague-Dawley rat brain stem membranes
Kind of data set: SERT radioligand binding in rat midbrain ([3H]-Citalopram competition). Conditions: rat midbrain/brain stem membranes, [3H]-Citalopram, mean ± SEM; read-out: SERT (rat mid-brain-stem) Ki ± SEM. As to the method:
(§1) Binding affinities of the analogue compounds were evaluated at the DAT and SERT in rat brain membranes, and sigma-1 in guinea pig brain membranes according to the following protocols.
SERT Radioligand Binding in Rat Midbrain
(§2) The tissue was centrifuged at 20,000 rpm for 10 min at 4° C. The pellet was suspended in cold buffer and centrifuged again using the same settings. The resulting pellet was resuspended in cold buffer at a concentration of 20 mg/mL OWW (original wet weight). On test day, all test compounds were freshly dissolved in 30% DMSO and 70% H2O to a stock concentration of 1 mM or 100 μM. When necessary, to assist the solubilization of compounds, 10 μl of glacial acetic acid was added along with the DMSO (in place of 10 μl final H2O volume). Each test compound was then diluted into 10 half-log serial dilutions using 30% DMSO vehicle. […] Non-specific binding was determined using 10 μL Fluoxetine HCl and total binding was determined with 30% DMSO vehicle. The reaction was started with the addition of the tissue. All compound dilutions were tested in triplicate and the reaction incubated for 60 min at room temperature. The reaction was terminated by filtration through Perkin Elmer Uni-Filter-96 GF/B, presoaked for 60 min in 0.3% polyethylenimine, using a Brandel 96-Well Plates Harvester Manifold (Brandel Instruments, Gaithersburg, Md.). The filters were washed 3 times with 3 mL (3×1 mL/well) of ice cold binding buffer. […] These analyses were performed using GraphPad Prism version 6.00 for Macintosh (GraphPad Software, San Diego, Calif.).

The nature of data set [1]: Phase I metabolic stability in rat liver microsomes. It is filed as in vitro ADME. Conditions: for Phase I in Liver Microsomes, Negative Control: rat liver microsomes lacking NADPH; for Phase I in Liver Microsomes, Rat: with NADPH, 10 μM compound, 0.5 mg/mL microsomes. As to the method: Methods: Phase I metabolic stability assays were conducted in rat liver microsomes. For phase I metabolism, the reactions were carried out with 100 mM potassium phosphate buffer, pH 7.4, in the presence of NADPH regenerating system (1.3 mM NADPH, 3.3 mM glucose 6-phosphate, 3.3 mM MgCl2, 0.4 U/mL glucose-6-phosphate dehydrogenase, […] sodium citrate). Reactions in triplicate were initiated by addition of the liver microsomes to the incubation mixture (compound final concentration was 10 μM; 0.5 mg/mL microsomes). Compound disappearance was monitored via LC/MS/MS. […] The total run time for each analyte was 5.0 min.

A further data set has as its target T2, DAT (Rattus norvegicus, UniProt P23977).
T2 construct: 100 μl of tissue preparation (1.5 mg of brain striatum membranes per well); tissue Bioreclamation IVT (Hicksville, N.Y.); host or cells: male Sprague-Dawley rat brain striatum membranes
Put plainly: DAT radioligand binding in rat striatum ([3H]-WIN35,428 competition). Conditions: for SERT/DAT: ratio of SERT Ki to DAT Ki. As to the method: as §1
DAT Radioligand Binding in Rat Striatum
as §2, with “of 15” for “of 20”, “100 μM” for “100 μM.”, “[…] Indatraline” for “μL Fluoxetine HCl”, “tissue. […]” for “tissue. All compound dilutions were tested in triplicate and the reaction incubated for 60 min at room temperature. The reaction was terminated by filtration through Perkin Elmer Uni-Filter-96 GF/B, presoaked for 60 min in 0.3% polyethylenimine, using a Brandel 96-Well Plates Harvester Manifold (Brandel Instruments, Gaithersburg, Md.).”

The target of another data set is T3, σ1R (Cavia porcellus, UniProt Q60492).
T3 construct: tissue BioReclamation IVT (Hicksville, N.Y.); host or cells: male Hartley guinea pig brain cortex membranes
T3 sequence (Q60492 whole entry): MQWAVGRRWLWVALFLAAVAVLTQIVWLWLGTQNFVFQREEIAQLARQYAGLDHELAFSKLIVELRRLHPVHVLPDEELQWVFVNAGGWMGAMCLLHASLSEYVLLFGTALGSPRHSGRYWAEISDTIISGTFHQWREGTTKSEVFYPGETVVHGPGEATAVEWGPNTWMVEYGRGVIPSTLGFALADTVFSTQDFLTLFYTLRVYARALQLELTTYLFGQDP
Put plainly: σ1R radioligand binding in guinea pig cortex ([3H]-(+)-Pentazocine competition). The note with it: for σ1/DAT: ratio of σ1 to DAT affinity values; for σ1/SERT: ratio of σ1 to SERT affinity values. As to the method:
as §1
σ1R Radioligand Binding in Guinea Pig Cortex
Male Hartley guinea pig cortices were dissected from freshly harvested brains (shipped cold in PBS buffer from BioReclamation IVT (Hicksville, N.Y.)) and frozen at −80° C. for future use. […] The supernatant was collected in a clean tube and the pellet re-suspended in 10 ml of cold buffer and centrifuged again (˜1,200 rpm) for 10 min at 4° C. […] The final pellet was suspended in ice-cold binding buffer at 50 mg/ml concentration. […] All test compounds were freshly dissolved in 30% DMSO and 70% H2O to a stock concentration of 1 mM or 100 μM. When necessary, to assist the solubilization of compounds, 10 μl of glacial acetic acid was added along with the DMSO (in place of 10 μl final H2O volume). Each test compound was then diluted into 10 half-log serial dilutions using 30% DMSO as the vehicle. […] Nonspecific binding was determined using either 10 μM PRE084 or 10 μM (+)-Pentazocine and total binding was determined with 30% DMSO vehicle (3% DMSO final concentration). […] The filters were washed 3 times with 3 ml (3×1 ml/well) of ice cold binding buffer.

Setting [2] is: rat striatum membranes, [3H]-WIN35,428, mean ± SEM, read-out: DAT (rat striatum) Ki ± SEM.

Where two headings read alike, the source gives them in different places.

T1 sequence (P31652 whole entry): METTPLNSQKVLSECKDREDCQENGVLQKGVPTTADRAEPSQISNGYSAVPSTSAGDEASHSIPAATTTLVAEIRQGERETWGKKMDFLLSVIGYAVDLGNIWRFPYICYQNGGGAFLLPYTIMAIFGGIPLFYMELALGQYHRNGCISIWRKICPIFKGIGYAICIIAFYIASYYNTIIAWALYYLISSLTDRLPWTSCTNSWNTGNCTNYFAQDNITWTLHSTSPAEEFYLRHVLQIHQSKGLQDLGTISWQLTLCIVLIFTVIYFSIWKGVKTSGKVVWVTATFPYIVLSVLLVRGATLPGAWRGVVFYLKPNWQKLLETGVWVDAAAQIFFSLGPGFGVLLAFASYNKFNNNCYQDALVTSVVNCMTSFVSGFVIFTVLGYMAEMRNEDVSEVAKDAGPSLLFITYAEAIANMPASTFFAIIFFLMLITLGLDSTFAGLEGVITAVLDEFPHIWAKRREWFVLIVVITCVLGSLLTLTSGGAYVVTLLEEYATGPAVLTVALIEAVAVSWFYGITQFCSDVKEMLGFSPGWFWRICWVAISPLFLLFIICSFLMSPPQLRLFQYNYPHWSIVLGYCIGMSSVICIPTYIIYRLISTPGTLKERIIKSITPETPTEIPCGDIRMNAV
T2 sequence (P23977 whole entry): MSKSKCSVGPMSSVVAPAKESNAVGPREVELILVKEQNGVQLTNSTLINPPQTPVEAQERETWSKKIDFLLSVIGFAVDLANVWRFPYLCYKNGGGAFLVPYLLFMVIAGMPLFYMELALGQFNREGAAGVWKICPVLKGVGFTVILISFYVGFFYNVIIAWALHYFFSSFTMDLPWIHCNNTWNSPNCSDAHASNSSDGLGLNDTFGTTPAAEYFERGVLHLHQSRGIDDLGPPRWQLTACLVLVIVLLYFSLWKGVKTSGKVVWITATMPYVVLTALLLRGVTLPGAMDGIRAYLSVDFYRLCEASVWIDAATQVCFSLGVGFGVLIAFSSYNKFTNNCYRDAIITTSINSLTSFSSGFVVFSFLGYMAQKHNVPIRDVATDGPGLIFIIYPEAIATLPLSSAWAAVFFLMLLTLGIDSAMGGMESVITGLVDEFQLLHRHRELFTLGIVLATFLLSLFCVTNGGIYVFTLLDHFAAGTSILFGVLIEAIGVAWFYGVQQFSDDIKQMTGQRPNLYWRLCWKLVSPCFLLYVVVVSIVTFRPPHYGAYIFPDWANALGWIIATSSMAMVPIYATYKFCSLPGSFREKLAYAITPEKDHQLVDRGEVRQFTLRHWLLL

With `Cl.Cl.OC(Cc1ccccc1)CN1CCC(NCCSC(c2ccc(F)cc2)c2ccc(F)cc2)CC1` (stereo not shown) [JBG01-058, 1-(4-((2-((Bis(4-fluorophenyl)methyl)thio)ethyl)amino)piperidin-1-yl)-3-phenylpropan-2-ol], the Ki – broadly, the equilibrium dissociation constant of an inhibitor or competing ligand from its target – at SERT worked out at 128 ± 33.2 nM. The figures for the “Phase I in Liver Microsomes, Negative Control” value in data set [1] (0 min) and in data set [1] (60 min) were 100% and 96%, respectively. The “Phase I in Liver Microsomes, Rat” value in data set [1] (0 min) amounted to 100%; in data set [1] (30 min), 98%; in data set [1] (60 min), 74%.
`Cl.Cl.Fc1ccc(C(SCCN2CCC(NCc3ccc(Cl)cc3)CC2)c2ccc(F)cc2)cc1` [JBG01-086, 1-(2-((Bis(4-fluorophenyl)methyl)thio)ethyl)-N-(4-chlorobenzyl)piperidin-4-amine]: the Ki at DAT (setting [2]) was 86.5 ± 35.6 nM. Further, at DAT, the SERT/DAT is 4.57. Besides, at SERT, the Ki is 395 ± 56.6 nM. Moreover, on σ1R, the σ1/DAT is on record as 0.72 and the σ1/SERT stood at 0.16.
For the molecule `Cl.O=C(c1ccccc1)N1CCC(NCCSC(c2ccc(F)cc2)c2ccc(F)cc2)CC1` [JBG02-009, (4-((2-((Bis(4-fluorophenyl)methyl)thio)ethyl)amino)piperidin-1-yl)(phenyl)methanone], on σ1R, the Kd (usually a measure of binding affinity in units of concentration) came to 2.04 ± 0.298 nM. Also, the “Phase I in Liver Microsomes, Negative Control” value in data set [1] (0 min) and in data set [1] (60 min) was 100% in each case. Moreover, the “Phase I in Liver Microsomes, Rat” value is 100% in data set [1] (0 min), 20% in data set [1] (30 min) and 7% in data set [1] (60 min). The “stability to Phase I metabolism (in words)” value in data set [1] (rat liver microsomes fortified with NADPH) was “susceptibility”.
On to `Cl.Cl.Fc1ccc(C(SCCNC2CCN(Cc3cc4ccccc4[nH]3)CC2)c2ccc(F)cc2)cc1` [JBG02-014, 1-((1H-Indol-2-yl)methyl)-N-(2-((bis(4-fluorophenyl)methyl)thio)ethyl)piperidin-4-amine], for which the Ki is 179 ± 22 nM on DAT (setting [2]) and 1720 ± 516 nM on SERT. Besides, the SERT/DAT on DAT amounted to 9.61.
With `O=C(C1CC1)N1CCC(NCCSC(c2ccc(F)cc2)c2ccc(F)cc2)CC1` [JBG02-083, (4-((2-((bis(4-fluorophenyl)methyl)thio)ethyl)amino)piperidin-1-yl)(cyclopropyl)methanone], the Ki at DAT (setting [2]) turned out to be 178 ± 35 nM; at SERT it was 1010 ± 94 nM. The SERT/DAT on DAT came to 5.67. Besides, on σ1R, the σ1/DAT was determined as 0.26.
In the same order, the values of `CC(C)(C)C(=O)N1CCC(NCC[S+]([O-])C(c2ccc(F)cc2)c2ccc(F)cc2)CC1` (stereo not shown) [JBG02-072, 1-(4-((2-((Bis(4-fluorophenyl)methyl)sulfinyl)ethyl)amino)piperidin-1-yl)-2,2-dimethylpropan-1-one] are 10200 ± 3610 nM, 32000 ± 6760 nM, 3.14 and 1.10.
With `Fc1ccc(C(SCCNC2CCN(Cc3ccccc3)CC2)c2ccc(F)cc2)cc1` [JBG01-052, 1-Benzyl-N-(2-((bis(4-fluorophenyl)methyl)thio)ethyl)piperidin-4-amine], the Ki at DAT (setting [2]) turned out to be 32.9 ± 5.86 nM. Moreover, the SERT/DAT on DAT was determined as 12.37. In addition, on SERT, the inhibition constant (Ki) is 407 ± 57.9 nM. On σ1R, the Kd was found to be 3.97 ± 0.767 nM, the σ1/DAT was 0.12 and the σ1/SERT stood at 0.0098.
Regarding `Cl.O=C(c1ccccc1)N1CCC(NCC[S+]([O-])C(c2ccc(F)cc2)c2ccc(F)cc2)CC1` (stereo not shown) [JBG02-055, (4-((2-((Bis(4-fluorophenyl)methyl)sulfinyl)ethyl)amino)piperidin-1-yl)(phenyl)methanone], the values for the Ki on DAT (setting [2]) and on SERT were 79.1 ± 20.6 nM and 7730 ± 732 nM, respectively. Besides, the SERT/DAT on DAT stood at 97.72.
As to `Cl.Cl.Fc1ccc(C(SCCNC2CCN(Cc3ccc(C(F)(F)F)cc3)CC2)c2ccc(F)cc2)cc1` [JBG01-083, N-(2-((Bis(4-fluorophenyl)methyl)thio)ethyl)-1-(4-(trifluoromethyl)benzyl)piperidin-4-amine], the Ki was 190 ± 47.9 nM at DAT (setting [2]) and 1620 ± 175 nM at SERT. For the same molecule, at DAT, the SERT/DAT was 8.53.
Take `CC(C)(C)CN1CCC(NCC[S+]([O-])C(c2ccc(F)cc2)c2ccc(F)cc2)CC1` (stereo not shown) [JBG02-074, N-(2-((Bis(4-fluorophenyl)methyl)sulfinyl)ethyl)-1-neopentylpiperidin-4-amine]: the Ki is 431 ± 28.2 nM at DAT (setting [2]) and 6990 ± 229 nM on SERT. Further, the SERT/DAT at DAT is given as 16.22. Also, on σ1R, the σ1/DAT is reported as 1.26.
Regarding `Cl.Cl.Fc1ccc(C(SCCN2CCC(NCc3ccc(C(F)(F)F)cc3)CC2)c2ccc(F)cc2)cc1` [JBG01-087, 1-(2-((Bis(4-fluorophenyl)methyl)thio)ethyl)-N-(4-(trifluoromethyl)benzyl)piperidin-4-amine], the results for the inhibition constant Ki on DAT (setting [2]) and at SERT were 128 ± 31.9 nM and 1040 ± 190 nM, respectively. In addition, the SERT/DAT at DAT is recorded as 8.13.
As to `Cl.Cl.O.O=C(c1cc2ccccc2[nH]1)N1CCC(NCCSC(c2ccc(F)cc2)c2ccc(F)cc2)CC1` [JBG02-029, (4-((2-((Bis(4-fluorophenyl)methyl)thio)ethyl)amino)piperidin-1-yl)(1H-indol-2-yl)methanone], at DAT, the Ki came out at 180 ± 39.8 nM and the SERT/DAT was determined as 5.21. Besides, the Ki on SERT is 938 ± 76.5 nM.
In the case of `CC(C)(C)C(=O)N1CCC(NCCSC(c2ccc(F)cc2)c2ccc(F)cc2)CC1.Cl` [JBG02-064, 1-(4-((2-((Bis(4-fluorophenyl)methyl)thio)ethyl)amino)piperidin-1-yl)-2,2-dimethylpropan-1-one], the results for the inhibitory constant (Ki) at DAT (setting [2]) and on SERT were 352 ± 137 nM and 1000 ± 228 nM, respectively. Besides, the SERT/DAT on DAT came out at 2.84.
As for `Cl.Cl.Fc1ccc(C(SCCNC2CCN(Cc3ccc(Cl)cc3)CC2)c2ccc(F)cc2)cc1` [JBG01-078, N-(2-((Bis(4-fluorophenyl)methyl)thio)ethyl)-1-(4 chlorobenzyl)piperidin-4-amine], the Ki was found to be 39.6 ± 9.27 nM on DAT (setting [2]) and 356 ± 0.862 nM at SERT. For the same molecule, the SERT/DAT on DAT turned out to be 8.99. In addition, the σ1/DAT on σ1R is 1.15. Moreover, at σ1R, the σ1/SERT was 0.13.
As to `O=C(c1cc2ccccc2o1)N1CCC(NCCSC(c2ccc(F)cc2)c2ccc(F)cc2)CC1` [JBG02-015, Benzofuran-2-yl(4-((2-((bis(4-fluorophenyl)methyl)thio)ethyl)amino)piperidin-1-yl)methanone], the inhibition constant Ki at DAT (setting [2]) was 115 ± 19.5 nM; at SERT, 96.4 ± 23.7 nM.
